Columns and labels:
[1] = target: Carbonic anhydrase 9 (Homo sapiens, UniProt Q16790); assay: Inhibition of recombinant human carbonic anhydrase 9 by stopped-flow CO2 hydration assay
[2] = test system: Mus musculus; assay: Anticonvulsant activity in Swiss Albino mouse assessed as protection against seizure at 100 mg/kg, ip measured after 3 hrs by sc-PTZ seizure test relative to control; format: functional
[3] = test system: Mus musculus; assay: Anticonvulsant activity in Swiss Albino mouse assessed as protection against seizure at 30 mg/kg, ip measured after 0.5 hrs by sc-PTZ seizure test relative to control; format: functional
[4] = test system: Mus musculus; assay: (§1) Anticonvulsant activity in Swiss Albino mouse model of maximal electroshock-induced seizure assessed as protection against seizure by measuring suppression of hind limb extension at 30 mg/kg, ip pretreated for 30 mins before seizure stimulation and measured after 0.5 hrs by MES test relative to control; format: functional; settings: time 60 min, 1 h
[5] = test system: Mus musculus; assay: as §1, with “at 100” for “at 30”, “after 3” for “after 0.5”; format: functional; settings: 0.5 h
[6] = test system: Mus musculus; assay: as §1, with “3” for “0.5”; format: functional; settings: time 3.5 hrs
[7] = test system: Mus musculus; assay: Anticonvulsant activity in Swiss Albino mouse assessed as protection against seizure at 100 mg/kg, ip measured after 0.5 hrs by sc-PTZ seizure test relative to control; format: functional
[8] = test system: Mus musculus; assay: as §1, with “at 100” for “at 30”; format: functional; settings: time 60 min, 1 h
[9] = test system: Mus musculus; assay: Anticonvulsant activity in Swiss Albino mouse assessed as protection against seizure at 30 mg/kg, ip measured after 3 hrs by sc-PTZ seizure test relative to control; format: functional
[10] = test system: Mus musculus; assay: as §1, with “po” for “ip”, “2” for “0.5”; format: functional; settings: time 2.5 hrs
[11] = test system: Mus musculus; assay: as §1, with “po” for “ip”, “4” for “0.5”; format: functional; settings: time 4.5 hrs
[12] = Hepatotoxicity in Wistar rat assessed as SGOT level at 100 mg/kg, po for 14 days (reference value: 59.9 +/- 11 U/L) by liver function test; format: toxicity, organism-based; settings: in vivo, 336 h, time 14 day
[13] = Renal toxicity in Wistar rat assessed as Na+ level at 100 mg/kg, po for 14 days (reference value: 144 +/- 2.8 mequiv/L) by kidney function test; format: organism-based; settings: in vivo, 336 h, time 14 day
[14] = Neurotoxicity in Swiss Albino mouse by rotarod test at 30 mg/kg. ip measured up to 120 mins by rotarod test; format: toxicity, organism-based; settings: in vivo, 2 h
[15] = Hepatotoxicity in Wistar rat assessed as SGPT level at 100 mg/kg, po for 14 days (reference value: 59.2 +/- 12.5 U/L) by liver function test; format: toxicity, organism-based; settings: in vivo, 336 h, time 14 day
[16] = test system: Mus musculus; assay: as §1, with “po” for “ip”, “0.25” for “0.5”; format: functional; settings: 0.5 h
[17] = Renal toxicity in Wistar rat assessed as creatinine level at 100 mg/kg, po for 14 days (reference value: 0.75 +/- 0.1 mg/dL) by kidney function test; format: organism-based; settings: in vivo, 336 h, time 14 day
[18] = Hematological toxicity in Wistar rat assessed as platelet count level at 100 mg/kg, po for 14 days (reference value: 698 +/- 156 10^3/mm3); format: organism-based; settings: in vivo, 336 h, time 14 day
[19] = test system: Mus musculus; assay: as §1, with “1” for “0.5”; format: functional; settings: time 1.5 hrs
[20] = Hepatotoxicity in Wistar rat assessed as total bilirubin level at 100 mg/kg, po for 14 days (reference value: 0.32 +/- 0.09 mg/dL) by liver function test; format: toxicity, organism-based; settings: in vivo, 336 h, time 14 day
[21] = Renal toxicity in Wistar rat assessed as phosphorus level at 100 mg/kg, po for 14 days (reference value: 9.4 +/- 2.0 mg/dL) by kidney function test; format: organism-based; settings: in vivo, 336 h, time 14 day
[22] = Hematological toxicity in Wistar rat assessed as neutrophils level at 100 mg/kg, po for 14 days (reference value: 20.8 +/- 5.8%); format: organism-based; settings: in vivo, 336 h, time 14 day
[23] = Hematological toxicity in Wistar rat assessed as TLC level at 100 mg/kg, po for 14 days (reference value: 6.3 +/- 1.4 10^3/ml); format: organism-based; settings: in vivo, 336 h, time 14 day
[24] = Hematological toxicity in Wistar rat assessed as eosinophils level at 100 mg/kg, po for 14 days (reference value: 2.3 +/- 1.2%); format: organism-based; settings: in vivo, 336 h, time 14 day
[25] = test system: Mus musculus; assay: as §1, with “po” for “ip”; format: functional; settings: time 60 min, 1 h
[26] = Hematological toxicity in Wistar rat assessed as monocytes level at 100 mg/kg, po for 14 days (reference value: 2.5 +/- 1.5%); format: organism-based; settings: in vivo, 336 h, time 14 day
[27] = Renal toxicity in Wistar rat assessed as calcium level at 100 mg/kg, po for 14 days (reference value: 10.3 +/- 1.8 mg/dL) by kidney function test; format: organism-based; settings: in vivo, 336 h, time 14 day
[28] = Renal toxicity in Wistar rat assessed as K+ level at 100 mg/kg, po for 14 days (reference value: 4.82 +/- 0.3 mequiv/L) by kidney function test; format: organism-based; settings: in vivo, 336 h, time 14 day
[29] = Hematological toxicity in Wistar rat assessed as basophils level at 100 mg/kg, po for 14 days (reference value: 0.3 +/- 0.5%); format: organism-based; settings: in vivo, 336 h, time 14 day
[30] = Hepatotoxicity in Wistar rat assessed as total protein level at 100 mg/kg, po for 14 days (reference value: 6.35 +/- 0.46 g/dL) by liver function test; format: toxicity, organism-based; settings: in vivo, 336 h, time 14 day
[31] = test system: Mus musculus; assay: as §1, with “4” for “0.5”; format: functional; settings: time 4.5 hrs
[32] = test system: Mus musculus; assay: as §1, with “6” for “0.5”; format: functional; settings: time 6.5 hrs
[33] = Renal toxicity in Wistar rat assessed as uric acid level at 100 mg/kg, po for 14 days (reference value: 4.33 +/- 2.5 mg/dL) by kidney function test; format: organism-based; settings: in vivo, 336 h, time 14 day
[34] = Hematological toxicity in Wistar rat assessed as RBC level at 100 mg/kg, po for 14 days (reference value: 7.9 +/- 0.94 10^6/mm3); format: organism-based; settings: in vivo, 336 h, time 14 day
[35] = Hepatotoxicity in Wistar rat assessed as alkaline phosphatase level at 100 mg/kg, po for 14 days (reference value: 114.2 +/- 8.4 U/L) by liver function test; format: toxicity, organism-based; settings: in vivo, 336 h, time 14 day
[36] = Hematological toxicity in Wistar rat assessed as Hb level at 100 mg/kg, po for 14 days (reference value: 12.7 +/- 1.5 g/dL); format: organism-based; settings: in vivo, 336 h, time 14 day
[37] = Sub-acute toxicity in Wistar rat at 100 mg/kg, po for 14 days; format: organism-based; settings: in vivo, 336 h, time 14 day
[38] = test system: Mus musculus; assay: as §1, with “2” for “0.5”; format: functional; settings: time 2.5 hrs
[39] = Renal toxicity in Wistar rat assessed as blood urea level at 100 mg/kg, po for 14 days (Rvb =34.7 +/- 9.9 mg/dL) by kidney function test; format: organism-based; settings: in vivo, 336 h, time 14 day
[40] = Hematological toxicity in Wistar rat assessed as lymphocytes level at 100 mg/kg, po for 14 days (reference value: 74.6 +/- 4.3%); format: organism-based; settings: in vivo, 336 h, time 14 day
[41] = test system: Mus musculus; assay: as §1, with “po” for “ip”, “1” for “0.5”; format: functional; settings: time 1.5 hrs
[42] = Renal toxicity in Wistar rat assessed as Cl- level at 100 mg/kg, po for 14 days (reference value: 105.5 +/- 6.5 mequiv/L) by kidney function test; format: organism-based; settings: in vivo, 336 h, time 14 day
[43] = Sub-acute toxicity in Wistar rat assessed as mortality level at 100 mg/kg, po for 14 days; format: organism-based; settings: in vivo, 336 h, time 14 day

NS(=O)(=O)c1ccc(CNC(=O)CCN2CCN(c3ncccn3)CC2)cc1
Ki [1]: 0.455 µM

NS(=O)(=O)c1ccc(CNC(=O)CCN2CCN(C(c3ccccc3)c3ccccc3)CC2)cc1
Ki [1]: 0.89 µM

COc1ccc(N2CCN(CC(=O)NCc3ccc(S(N)(=O)=O)cc3)CC2)cc1
Ki [1]: 1.1 µM

NS(=O)(=O)c1ccc(CNC(=O)CN2CCN(C(c3ccccc3)c3ccccc3)CC2)cc1
Ki [1]: 1.68 µM

COc1ccc(N2CCN(CCC(=O)NCc3ccc(S(N)(=O)=O)cc3)CC2)cc1
Ki [1]: 0.136 µM

NS(=O)(=O)c1ccc(CNC(=O)CN2CCN(c3ncccn3)CC2)cc1
Activity [2]: 50%
Activity [3]: 33%
Activity [4]: 50%
Activity [5]: 83%
Activity [6]: 67%
Ki [1]: 2.23 µM
Activity [7]: 50%
Activity [8]: 50%
Activity [9]: 50%

NS(=O)(=O)c1ccc(CNC(=O)CCN2CCN(Cc3ccc4c(c3)OCO4)CC2)cc1
Activity [10]: 67%
Activity [11]: 50%
Activity [12]: 64.2 U/L
Activity [2]: 50%
Activity [13]: 144 mEq/L
Activity [14]: Non-Toxic
Activity [15]: 52.9 U/L
Activity [16]: 17%
Activity [17]: 0.75 mg/dL
Activity [18]: 662.3 10^3/mm3
Activity [19]: 80%
Activity [20]: 0.38 mg/dL
Activity [21]: 6.8 mg/dL
Activity [22]: 22.3%
Activity [3]: 83%
Activity [4]: 67%
Activity [5]: 67%
Activity [23]: 7.5 10^3/ml
Activity [24]: 2.3%
Activity [25]: 50%
Activity [26]: 2.3%
Activity [6]: 67%
Activity [27]: 9.9 mg/dL
Activity [28]: 4.9 mEq/L
Activity [29]: 0.16%
Activity [30]: 6.2 g/dL
Activity [31]: 70%
Activity [32]: 50%
Activity [33]: 2.73 mg/dL
Ki [1]: 0.104 µM
Activity [34]: 7.7 10^6/mm3
Activity [7]: 50%
Activity [35]: 113.4 U/L
Activity [36]: 12.6 g/dL
Activity [8]: 83%
Activity [37]: Non-Toxic
Activity [38]: 60%
Activity [39]: 39.8 mg/dL
Activity [9]: 67%
Activity [40]: 74%
Activity [41]: 67%
Activity [42]: 104.3 mEq/L
Activity [43]: Non-Toxic

NS(=O)(=O)c1ccc(CNC(=O)CCN2CCN(c3ccc(C(F)(F)F)cc3)CC2)cc1
Ki [1]: 0.137 µM

NS(=O)(=O)c1ccc(CNC(=O)CN2CCN(C(=O)OCc3ccccc3)CC2)cc1
Activity [2]: 33%
Activity [3]: 67%
Activity [4]: 17%
Activity [5]: 50%
Activity [6]: 67%
Ki [1]: 1.63 µM
Activity [7]: 50%
Activity [8]: 67%
Activity [9]: 17%

NS(=O)(=O)c1ccc(CNC(=O)CN2CCN(Cc3ccccc3)CC2)cc1
Ki [1]: 0.22 µM

Cc1ccc(N2CCN(CCC(=O)NCc3ccc(S(N)(=O)=O)cc3)CC2)cc1
Ki [1]: 0.0789 µM

NS(=O)(=O)c1ccc(CNC(=O)CN2CCN(c3ccc(C(F)(F)F)cc3)CC2)cc1
Ki [1]: 1.77 µM

NS(=O)(=O)c1ccc(CNC(=O)CCN2CCN(c3ccc(F)cc3)CC2)cc1
Ki [1]: 0.115 µM

NS(=O)(=O)c1ccc(CNC(=O)CN2CCN(C(c3ccc(F)cc3)c3ccc(F)cc3)CC2)cc1
Ki [1]: 2.44 µM

NS(=O)(=O)c1ccc(CNC(=O)CCN2CCN(C(=O)OCc3ccccc3)CC2)cc1
Ki [1]: 0.257 µM

NS(=O)(=O)c1ccc(CNC(=O)CCN2CCN(C(c3ccc(F)cc3)c3ccc(F)cc3)CC2)cc1
Ki [1]: 0.098 µM

NS(=O)(=O)c1ccc(CNC(=O)CN2CCN(c3ccc(F)cc3)CC2)cc1
Ki [1]: 0.228 µM

NS(=O)(=O)c1ccc(CNC(=O)CN2CCN(c3ccccc3)CC2)cc1
Ki [1]: 0.396 µM

NS(=O)(=O)c1ccc(CNC(=O)CCN2CCN(c3ccccc3)CC2)cc1
Ki [1]: 0.0237 µM

NS(=O)(=O)c1ccc(CNC(=O)CCN2CCN(c3ccccn3)CC2)cc1
Ki [1]: 0.162 µM

NS(=O)(=O)c1ccc(CNC(=O)CN2CCN(Cc3ccc4c(c3)OCO4)CC2)cc1
Ki [1]: 1.6 µM

NS(=O)(=O)c1ccc(CNC(=O)CCN2CCN(Cc3ccccc3)CC2)cc1
Ki [1]: 0.116 µM

Cc1ccc(N2CCN(CC(=O)NCc3ccc(S(N)(=O)=O)cc3)CC2)cc1
Ki [1]: 1.53 µM

NS(=O)(=O)c1ccc(CNC(=O)CN2CCN(c3ccc(Cl)cc3)CC2)cc1
Ki [1]: 1.2 µM

NS(=O)(=O)c1ccc(CNC(=O)CCN2CCN(c3ccc(Cl)cc3)CC2)cc1
Ki [1]: 0.117 µM

NS(=O)(=O)c1ccc(CNC(=O)CN2CCN(c3ccccn3)CC2)cc1
Ki [1]: 1.56 µM

— ChEMBL document CHEMBL4680105, “Discovery of Benzenesulfonamide Derivatives as Carbonic Anhydrase Inhibitors with Effective Anticonvulsant Action: Design, Synthesis, and Pharmacological Evaluation” (J Med Chem, 2018)
